“Also recorded” adds a separate entry of the source. Like-named read-outs stand apart in the source and are kept apart here.
Key:
[1] = tested on: cortical neurons and glia; test: Chemical hypoxia (azide) and glucose deprivation in cortical cell cultures, medium LDH; assay type: cell-based, Swiss Webster mice; conditions: for effect on azide neurotoxicity in glucose-free buffer (neuronal death): 3 mM azide 30 min with compound, LDH 21-25 h later; for effect on potentiation of azide toxicity/glucose deprivation by GSH: 3 mM azide plus 100 μM GSH plus compound; for effect on potentiation of azide toxicity/glucose deprivation by GSH / effect on potentiation of azide toxicity by mercaptoethanol: 30 min; for effect on potentiation of azide toxicity by mercaptoethanol: 3 mM azide plus 100 μM mercaptoethanol plus compound
Description: Primary cultures containing both cortical neurons and glia were prepared from gravid Swiss Webster mice as previously described. (Regan , R. F. and Choi, D. W., The effect of NMDA, AMPA/kainate, and calcium channel antagonists on traumatic cortical neuronal injury in culture, Brain Res, 633: 236-242, 1994). Plating medium consisted of Eagle's minimal essential medium (MEM), 5% equine serum, 5% fetal bovine serum, 2 mM glutamine, and 23 mM glucose. Cultures were incubated in 5% CO2 at 37° C. Two-thirds of the culture medium was exchanged twice weekly with MEM containing 10% equine serum, 2 mM glutamine, and 23 mM glucose. Glial cell division was inhibited at 4-7 days in vitro with 10^−5 M cytosine arabinoside.
Chemical hypoxia was induced with 3 mM azide, which unlike cyanide is not volatile and has little effect on copper-zinc and manganese superoxide dismutases at low millimolar concentrations. (Misra, H. P. and Fridovich, I., Inhibition of superoxide dismutases by azide, Arch Biochem Biophys 189: 317-322, 1978). Experiments were conducted at 13-16 days in vitro in a glucose-free buffer containing 116 mM NaCl, 5.4 mM KCl, 1.8 mM CaCl2, 1 mM NaH2PO4, 26.2 mM NaHCO3, 0.8 mM MgSO4, and amino acids (MEM amino acids, Sigma Chemical Co., St. Louis, Mo., U.S.A.). After incubation for 30-90 min at 37° C. in 5% CO2, cultures were washed into MEM containing 10 mM glucose and were returned to the incubator.
Cell death was estimated 21-25 h after azide exposure by inspection under phase-contrast microscopy, and was quantified by assaying lactate dehydrogenase (LDH) activity in the medium, as previously described. (Regan, R. F. and Panter, S. S., Traumatic neuronal injury in cortical cell culture is attenuated by 21-aminosteroids, Brain Res, 682: 144-150, 1995). Medium LDH in this culture system is an accurate marker of neuronal death that correlates well with cell counts. (Koh, J. Y. and Choi, D. W., Vulnerability of cultured cortical neurons to damage by excitotoxins: Differential susceptibility of neurons containing NADPH-diaphorase, J Neurosci 8: 2153-2163, 1988). […] (Koh, J. Y. and Choi, D. W., 1988). The LDH activity in the medium of sister cultures exposed to sham wash alone was subtracted from all values to obtain the LDH signal associated specifically with neurotoxin exposure.
Data were analyzed by one-way analysis of variance. Differences between groups and a single mean were assessed with the Dunnett multiple comparisons test; when groups were compared to more than one mean, the Tukey-Kramer post hoc test was used.

[2] = tested on: murine cortical cell cultures (neurons), NMDA receptor; test: NMDA neurotoxicity in murine cortical cell cultures, medium LDH; assay type: cell-based, Swiss Webster mice; conditions: for LDH release: scaled to 300 μM NMDA (=100); for effect on potentiation of NMDA neurotoxicity by mercaptoethanol: NMDA plus 1 mM mercaptoethanol plus equimolar compound; for effect on NMDA neurotoxicity (neuronal death, medium LDH): compound added with low micromolar NMDA, 20-25 h; for effect on potentiation of NMDA neurotoxicity by GSH: NMDA plus GSH plus compound
Description: Cultures were incubated in 5% CO2 at 37° C.
Experiments were conducted at 13-15 days in vitro.

native NMDA receptor = biological target: T1, native NMDA receptor (Rattus norvegicus, UniProt P35439); conditions: cited from earlier work
T1 construct: host or cells: cultured forebrain, cortical or retinal neurons (endogenous receptor)

[3] = tested on: NR1-NR2B, -NR2C, or -NR2D receptors; conditions: millimolar concentrations of GSH; cited from earlier work
[4] = tested on: murine cortical cell cultures (neurons), AMPA and kainate receptors; conditions: listed as reduced glutathione
Description: (§1) After halothane anesthesia and cervical dislocation, cortical hemispheres were removed and incubated in 0.075% (wt/vol) acetylated trypsin (Sigma T-6763) for 1 h at 37° C. Tissue was dissociated by multiple passages through a narrow bore (flamed) Pasteur pipette, and the cell suspension was plated on confluent glial cultures at a density of 2.25-2.5 hemispheres per 24 well plate.
(§2) Experiments were conducted at 13-15 days in vitro. Cultures were exposed to excitatory amino acids in serum-free MEM containing 10 mM glucose.
Since astrocytes are not vulnerable to excitotoxic injury in this culture system (Choi D. W., Maulucci-Gedde M. and Kriegstein A. R. Glutamate neurotoxicity in cortical cell culture. J Neurosci 7: 357-368, 1987), the contribution of astrocytic LDH to the LDH signal is negligible.
Differences between groups were assessed with the Tukey-Kramer or Dunnett post hoc tests.

[5] = tested on: NMDA receptor-mediated neurotoxicity; conditions: cited from earlier work
[6] = tested on: cultured cerebellar granule cells; conditions: cited from earlier work
GSH binding sites = conditions: cited from earlier work
cortical cell culture = conditions: low micromolar concentrations; cited from earlier work
[7] = tested on: murine cortical cell cultures; conditions: millimolar concentrations, 20-25 h, 0 μM NMDA
Description: as §1, §2

Molecule: O[C@H](CS)[C@H](O)CS (racemic) [dithiothreitol]
- effect on azide neurotoxicity in glucose-free buffer (neuronal death) [1]: concentration-toxicity profile that was similar to GSH

Molecule: N[C@@H](CCC(=O)N[C@@H](CS)C(=O)NCC(=O)O)C(=O)O [GSH, glutathione]
- LDH release ([2]; 8 μM NMDA plus GSH): 61.09±3.83%
- effect on neuronal death at high NMDA concentration ([2]; 24 μM NMDA): not altered
- effect on potentiation of NMDA neurotoxicity by mercaptoethanol [2]: did not further increase neuronal death; also recorded: tended to inhibit the effect of mercaptoethanol; also recorded: did not further enhance NMDA neurotoxicity
- effect on potentiation of NMDA neurotoxicity by mercaptoethanol ([2]; listed as reduced glutathione): did not further increase NMDA-induced neuronal death
- effect on NMDA neurotoxicity (neuronal death, medium LDH) [2]: selectively potentiates NMDA neurotoxicity; also recorded: markedly potentiated; also recorded: specifically potentiated NMDA neurotoxicity; also recorded: selectively potentiate
- effect on NMDA neurotoxicity (neuronal death, medium LDH) ([2]; listed as glutathione): marked potentiation
- effect on NMDA neurotoxicity (neuronal death, medium LDH) ([2]; listed as reduced glutathione): markedly enhanced; also recorded: markedly enhance the vulnerability
- effect on native NMDA receptor responses (native NMDA receptor): no effect
- effect on responses to glutamate (whole cell currents) [3]: not
- effect on neurotoxicity of kainic acid [4]: unaffected
- effect on NMDA neurotoxicity [5]: attenuated NMDA neurotoxicity
- basal 45Ca2+ influx [6]: did not alter
- glutamate and NMDA-induced calcium influx [6]: increased

Molecule: C[C@]12N[C@H](Cc3ccccc31)c1ccccc12 [MK-801]
- LDH release ([2]; 8 μM NMDA plus GSH plus MK-801): −1.24±1.58%
- cell death due to 8 μM NMDA plus GSH ([2]; 8 μM NMDA plus GSH plus compound): completely blocked
- effect on potentiation of azide toxicity/glucose deprivation by GSH [1]: blocked

Molecule: NS(=O)(=O)c1cccc2c1c([N+](=O)[O-])cc1[nH]c(=O)c(=O)[nH]c12 [NBQX, 1,2,3,4-tetrahydro-6-nitro-2,3-dioxo-benzo[f]quinoxaline-7-sulfonamide]
- effect on potentiation of azide toxicity/glucose deprivation by GSH [1]: not and no effect

Molecule: CN[C@H](CC(=O)O)C(=O)O [NMDA, N-methyl-D-aspartate]
- neuronal death by NMDA ([2]; 24 μM NMDA): widespread neuronal death
- neuronal death by NMDA ([2]; 300 μM NMDA, sister cultures (=100)): essentially complete neuronal death without injuring glia

Molecule: CCCCCCSC[C@H](NC(=O)CC[C@H](N)C(=O)O)C(=O)NCC(=O)O [SHG, S-hexylglutathione]
- effect on potentiation of NMDA neurotoxicity by (sulfhydryl) reducing agents [2]: antagonized
- effect on potentiation of NMDA neurotoxicity by mercaptoethanol [2]: blocked the effect of mercaptoethanol
- effect on potentiation of NMDA neurotoxicity by mercaptoethanol ([2]; listed as S-hexylglutathione): completely blocked
- effect on potentiation of NMDA neurotoxicity by GSH [2]: completely blocked
- effect on potentiation of NMDA neurotoxicity by GSH ([2]; listed as S-hexylglutathione): completely blocked; also recorded: antagonized the effect of GSH
- effect on NMDA neurotoxicity (neuronal death, medium LDH) [2]: no significant effect; also recorded: did not attenuate NMDA neurotoxicity per se
- effect on NMDA neurotoxicity (neuronal death, medium LDH) ([2]; listed as S-hexylglutathione): inactive per se
- effect on potentiation of NMDA neurotoxicity by (sulfhydryl) reducing agents ([2]; listed as S-hexylglutathione): blocked the potentiation
- effect on azide neurotoxicity in glucose-free buffer (neuronal death) [1]: ineffective
- effect on azide neurotoxicity in glucose-free buffer (neuronal death) ([1]; listed as S-hexylglutathione): not increased
- effect on potentiation of azide toxicity/glucose deprivation by GSH [1]: attenuates
- effect on potentiation of azide toxicity by mercaptoethanol [1]: attenuates
- neuroprotection against azide plus GSH or mercaptoethanol ([1]; compound at 1-3 mM): decreasing neuronal death moderately
- effect on glutathione binding (GSH binding sites; listed as S-hexylglutathione): displace glutathione binding; also recorded: selectively inhibited

Molecule: CSC[C@H](NC(=O)CC[C@H](N)C(=O)O)C(=O)NCC(=O)O [SMG, S-methylglutathione]
- effect on potentiation of NMDA neurotoxicity by (sulfhydryl) reducing agents [2]: blocked the potentiation
- effect on potentiation of NMDA neurotoxicity by GSH [2]: blocks the potentiation; also recorded: completely blocked; also recorded: antagonized the effect of GSH
- effect on NMDA neurotoxicity (neuronal death, medium LDH) [2]: inactive per se
- effect on glutathione binding (GSH binding sites): displace glutathione binding

Molecule: CCN(CC)c1ccc(N(CC)CC)c(N2CCN(CC(=O)[C@H]3[C@H](C)C[C@H]4[C@@H]5CCC6=CC(=O)C=C[C@]6(C)C5=CC[C@@]43C)CC2)n1.Cl [U74500A]
- effect on potentiation of NMDA neurotoxicity by GSH [2]: GSH also potentiated injury in the presence
- effect on hemoglobin toxicity (cortical cell culture): blocks hemoglobin toxicity

Molecule: [N-]=[N+]=[N-] [azide]
- toxicity of azide alone ([1]; 3 mM azide in glucose-free medium, 30 minutes): tolerated by most neurons

Molecule: N[C@@H](CS)C(=O)O [cysteine]
- effect on glutathione binding (GSH binding sites): selectively inhibited

Molecule: N[C@@H](CCC(=O)O)C(=O)O [glutamate]
- effect on glutathione binding (GSH binding sites): not

Molecule: oxidized glutathione [GSSG]
- effect on potentiation of NMDA neurotoxicity by (sulfhydryl) reducing agents [2]: antagonized
- effect on potentiation of NMDA neurotoxicity by mercaptoethanol [2]: completely blocked; also recorded: blocked the effect of mercaptoethanol
- effect on potentiation of NMDA neurotoxicity by mercaptoethanol ([2]; listed as oxidized glutathione): blocked
- effect on NMDA neurotoxicity (neuronal death, medium LDH) [2]: no significant effect; also recorded: did not attenuate NMDA neurotoxicity per se
- effect on azide neurotoxicity in glucose-free buffer (neuronal death) [1]: ineffective; also recorded: not increased
- effect on potentiation of azide toxicity/glucose deprivation by GSH [1]: most neurons have survived; also recorded: attenuates
- effect on potentiation of azide toxicity by mercaptoethanol [1]: attenuates
- effect on neuronal death induced by prolonged azide exposure ([1]; azide 60-90 min in the absence of GSH): no significant effect
- neuroprotection against azide plus GSH or mercaptoethanol ([1]; compound at 1-3 mM): robust effect
- neuroprotection against azide plus GSH or mercaptoethanol ([1]; equimolar compound (100 μM)): weak and somewhat variable neuroprotection
- effect on native NMDA receptor responses (native NMDA receptor): inhibitory
- toxicity of compound alone [7]: nontoxic
- effect on NMDA neurotoxicity [5]: attenuated NMDA neurotoxicity

B1: catalase: catalase, added at a concentration sufficient to inhibit the neurotoxicity of the pro-oxidant hemoglobin (protein, UniProt P00432 2-527, looked up)
Catalase: ADNRDPASDQMKHWKEQRAAQKPDVLTTGGGNPVGDKLNSLTVGPRGPLLVQDVVFTDEMAHFDRERIPERVVHAKGAGAFGYFEVTHDITRYSKAKVFEHIGKRTPIAVRFSTVAGESGSADTVRDPRGFAVKFYTEDGNWDLVGNNTPIFFIRDALLFPSFIHSQKRNPQTHLKDPDMVWDFWSLRPESLHQVSFLFSDRGIPDGHRHMNGYGSHTFKLVNANGEAVYCKFHYKTDQGIKNLSVEDAARLAHEDPDYGLRDLFNAIATGNYPSWTLYIQVMTFSEAEIFPFNPFDLTKVWPHGDYPLIPVGKLVLNRNPVNYFAEVEQLAFDPSNMPPGIEPSPDKMLQGRLFAYPDTHRHRLGPNYLQIPVNCPYRARVANYQRDGPMCMMDNQGGAPNYYPNSFSAPEHQPSALEHRTHFSGDVQRFNSANDDNVTQVRTFYLKVLNEEQRKRLCENIAGHLKDAQLFIQKKAVKNFSDVHPEYGSRIQALLDKYNEEKPKNAVHTYVQHGSHLSAREKANL
- effect on potentiation of NMDA neurotoxicity by GSH [2]: No effect was observed
